Values after ≈ are worked out from the molar mass of the structure shown. Active and inactive are the calls of the source. No cut-off for these calls is given here.
How the values were obtained:
Cell membrane [1] = assay: Disruption of membrane permeability in methicillin resistant Staphylococcus aureus clinical isolate 003 assessed as protein leakage at 2 to 4 times MIC
Staphylococcus aureus [2] = assay: Antibiofilm activity in methicillin resistant Staphylococcus aureus clinical isolate 003 assessed as destruction of biofilm integrity at 0.5 to 4 times MIC measured after 24 hrs by inverted fluorescence microscopic analysis; format: functional, organism-based
Staphylococcus aureus [3] = assay: Antibacterial activity against Staphylococcus aureus clinical isolate 31; format: functional
Cell membrane [4] = assay: Induction of cell membrane damage in methicillin resistant Staphylococcus aureus clinical isolate 003 assessed as increase in green fluorescence at 2 to 4 times MIC by SYTOX Green dye based analysis; format: cell membranes
Staphylococcus aureus [5] = assay: Antibiofilm activity in methicillin resistant Staphylococcus aureus clinical isolate 003 assessed as reduction in biofilm density at 0.5 to 4 times MIC measured after 24 hrs by inverted fluorescence microscopic analysis; format: functional, organism-based
Staphylococcus aureus [6] = assay: Antibacterial activity against methicillin resistant Staphylococcus aureus clinical isolate 031; format: functional
Enterococcus faecalis [7] = assay: Antibiofilm activity in multidrug resistant Enterococcus faecalis ATCC 51299 assessed as destruction of biofilm integrity at 0.5 to 4 times MIC measured after 24 hrs by inverted fluorescence microscopic analysis; format: functional, organism-based
Cell membrane [8] = assay: Induction of membrane damage in methicillin resistant Staphylococcus aureus clinical isolate 003 assessed as deformation of bacterial surface at 2 to 4 times MIC by SEM analysis; format: cell membranes
Enterococcus faecalis [9] = assay: Antibacterial activity against multidrug resistant Enterococcus faecalis ATCC 51299 in presence of phosphatidylglycerol; format: functional, organism-based
Staphylococcus aureus [10] = assay: Antibiofilm activity in methicillin resistant Staphylococcus aureus clinical isolate 003 assessed as inhibition of biofilm formation at 4 times MIC by crystal violet staining based analysis relative to control; format: functional
Staphylococcus aureus [11] = assay: Antibiofilm activity in methicillin resistant Staphylococcus aureus clinical isolate 003 assessed as biofilm clearance rate at 4 times MIC by crystal violet staining based analysis relative to control; format: functional
Enterococcus faecalis [12] = assay: Antibacterial activity against multidrug resistant Enterococcus faecalis ATCC 51299; format: functional
Staphylococcus aureus [13] = assay: Antibacterial activity against methicillin resistant Staphylococcus aureus clinical isolate 011; format: functional
Enterococcus faecalis [14] = assay: Antibacterial activity against multidrug resistant Enterococcus faecalis ATCC 51299 at 2 to 4 times MIC measured after 8 to 12 hrs by time-kill assay; format: functional, organism-based; conditions: time 8-12 hrs
Cell membrane [15] = assay: Induction of membrane damage in multidrug resistant Enterococcus faecalis ATCC 51299 assessed as deformation of bacterial surface at 2 to 4 times MIC by SEM analysis; format: cell membranes
Cell membrane [16] = assay: Disruption of membrane permeability in multidrug resistant Enterococcus faecalis ATCC 51299 assessed as nucleic acid leakage at 2 to 4 times MIC
Enterococcus faecalis [17] = assay: Antibiofilm activity in multidrug resistant Enterococcus faecalis ATCC 51299 assessed as inhibition of biofilm formation at 4 times MIC by crystal violet staining based analysis relative to control; format: functional
Cell membrane [18] = assay: Induction of membrane depolarization in multidrug resistant Enterococcus faecalis ATCC 51299 assessed as increase in fluorescence intensity at 2 to 4 times MIC by DiSC3(5) dye based analysis
Cell membrane [19] = assay: Induction of membrane damage in multidrug resistant Enterococcus faecalis ATCC 51299 assessed as rupture of bacterial surface at 2 to 4 times MIC by SEM analysis; format: cell membranes
Cell membrane [20] = assay: Induction of cell membrane damage in methicillin resistant Staphylococcus aureus clinical isolate 003 assessed as increase in red fluorescence at 2 to 4 times MIC by PI staining based analysis; format: cell membranes
Enterococcus faecalis [21] = assay: Antibacterial activity against multidrug resistant Enterococcus faecalis ATCC 51299 in presence of peptidoglycan; format: functional, organism-based
Staphylococcus aureus [22] = assay: Bactericidal activity against methicillin-resistant Staphylococcus aureus clinical isolate 003 assessed as inhibition of bacterial growth by measuring ratio of MBC to MIC; format: functional
Cell membrane [23] = assay: Induction of membrane depolarization in methicillin resistant Staphylococcus aureus clinical isolate 003 assessed as increase in fluorescence intensity at 2 to 4 times MIC by DiSC3(5) dye based analysis
Enterococcus faecalis [24] = assay: Antibacterial activity against Enterococcus faecalis clinical isolate 7; format: functional
Cell membrane [25] = assay: Disruption of membrane permeability in methicillin resistant Staphylococcus aureus clinical isolate 003 assessed as nucleic acid leakage at 2 to 4 times MIC
Cell membrane [26] = assay: Induction of cell membrane damage in multidrug resistant Enterococcus faecalis ATCC 51299 assessed as increase in red fluorescence at 2 to 4 times MIC by PI staining based analysis; format: cell membranes
Enterococcus faecalis [27] = assay: Antibacterial activity in multidrug resistant Enterococcus faecalis ATCC 51299 at sub-MIC measured after 20 passages; format: functional, organism-based
Staphylococcus aureus [28] = assay: Antibacterial activity against methicillin resistant Staphylococcus aureus clinical isolate 003 in presence of peptidoglycan; format: functional, organism-based
Cell membrane [29] = assay: Disruption of membrane permeability in methicillin resistant Staphylococcus aureus clinical isolate 003 assessed as increase in ROS accumulation at 2 to 4 times MIC measured after 1 hr
Cell membrane [30] = assay: Induction of cell membrane damage in multidrug resistant Enterococcus faecalis ATCC 51299 assessed as increase in green fluorescence at 2 to 4 times MIC by SYTOX Green dye based analysis; format: cell membranes
Staphylococcus aureus [31] = assay: Antibacterial activity against methicillin resistant Staphylococcus aureus clinical isolate 003 in presence of phosphatidylethanolamine; format: functional, organism-based
Enterococcus faecalis [32] = assay: Antibiofilm activity in multidrug resistant Enterococcus faecalis ATCC 51299 assessed as biofilm clearance rate at 4 times MIC by crystal violet staining based analysis relative to control; format: functional
Cell membrane [33] = assay: Disruption of membrane permeability in methicillin resistant Staphylococcus aureus clinical isolate 003 assessed as increase in fluorescence intensity at 4 to 8 times MIC by PI staining based analysis
Staphylococcus aureus [34] = assay: Antibiofilm activity in methicillin resistant Staphylococcus aureus clinical isolate 003 assessed as biofilm clearance at 0.5 to 4 times MIC by crystal violet staining based analysis; format: functional, organism-based
Cell membrane [35] = assay: Disruption of membrane permeability in multidrug resistant Enterococcus faecalis ATCC 51299 assessed as increase in ROS accumulation at 2 to 4 times MIC measured after 1 hr
Staphylococcus aureus [36] = assay: Antibacterial activity against methicillin resistant Staphylococcus aureus clinical isolate 003 in presence of phosphatidylglycerol; format: functional, organism-based
Cell membrane [37] = assay: Induction of cell membrane damage in multidrug resistant Enterococcus faecalis ATCC 51299 assessed as bacterial death at 2 to 4 times MIC by confocal laser scanning microscopy; format: cell membranes
Enterococcus faecalis [38] = assay: Antibiofilm activity in multidrug resistant Enterococcus faecalis ATCC 51299 assessed as biofilm clearance at 0.5 to 4 times MIC by crystal violet staining based analysis; format: functional, organism-based
Staphylococcus aureus [39] = assay: Antibacterial activity against Staphylococcus aureus clinical isolate 29; format: functional
Cell membrane [40] = assay: Induction of membrane damage in methicillin resistant Staphylococcus aureus clinical isolate 003 assessed as rupture of bacterial surface at 2 to 4 times MIC by SEM analysis; format: cell membranes
Staphylococcus aureus [41] = assay: Antibacterial activity against methicillin-resistant Staphylococcus aureus clinical isolate 003 at 2 to 4 times MIC measured after 8 to 12 hrs by time-kill assay; format: functional, organism-based; conditions: time 8-12 hrs
Enterococcus faecalis [42] = assay: Antibacterial activity against multidrug resistant Enterococcus faecalis ATCC 51299 in presence of phosphatidylethanolamine; format: functional, organism-based
Staphylococcus aureus [43] = assay: Antibacterial activity against methicillin resistant Staphylococcus aureus clinical isolate 003 in presence of cardiolipin; format: functional, organism-based

SMILES: CCCCCCc1c(-c2ccc(OCCCCN(C)C)cc2OCCCCN(C)C)oc2cc(OC)cc(O)c2c1=O
- Activity (Cell membrane [1]): Active
- Activity (Staphylococcus aureus [2]): Dose-Dependent Effect
- MIC (Staphylococcus aureus [3]): 1 µg/mL (≈ 1.72 µM)
- Activity (Cell membrane [4]): Active
- Activity (Staphylococcus aureus [5]): Dose-Dependent Effect
- MIC (Staphylococcus aureus [6]): 1 µg/mL (≈ 1.72 µM)
- Activity (Enterococcus faecalis [7]): Dose-Dependent Effect
- Activity (Cell membrane [8]): Active
- Activity (Enterococcus faecalis [9]): inactive
- inhibition (INH) (Staphylococcus aureus [10]): >90%
- Activity (Staphylococcus aureus [11]): ~80%
- MIC (Enterococcus faecalis [12]): 1 µg/mL (≈ 1.72 µM)
- MIC (Staphylococcus aureus [13]): 1 µg/mL (≈ 1.72 µM)
- Activity (Enterococcus faecalis [14]): Active
- Activity (Cell membrane [15]): Active
- Activity (Cell membrane [16]): Active
- inhibition (INH) (Enterococcus faecalis [17]): >90%
- Activity (Cell membrane [18]): Dose-Dependent Effect
- Activity (Cell membrane [19]): Active
- Activity (Cell membrane [20]): Active
- Activity (Enterococcus faecalis [21]): Active
- Ratio (Staphylococcus aureus [22]): <4
- Activity (Cell membrane [23]): Dose-Dependent Effect
- MIC (Enterococcus faecalis [24]): 1 µg/mL (≈ 1.72 µM)
- Activity (Cell membrane [25]): Active
- Activity (Cell membrane [26]): Active
- Activity (Enterococcus faecalis [27]): Active
- Activity (Staphylococcus aureus [28]): Active
- Activity (Cell membrane [29]): Active
- Activity (Cell membrane [30]): Active
- Activity (Staphylococcus aureus [31]): inactive
- Activity (Enterococcus faecalis [32]): ~80%
- Activity (Cell membrane [33]): Active
- Activity (Staphylococcus aureus [34]): Dose-Dependent Effect
- Activity (Cell membrane [35]): Active
- Activity (Staphylococcus aureus [36]): inactive
- Activity (Cell membrane [37]): Active
- Activity (Enterococcus faecalis [38]): Dose-Dependent Effect
- MIC (Staphylococcus aureus [39]): 0.5 µg/mL (≈ 0.858 µM)
- Activity (Cell membrane [40]): Active
- Activity (Staphylococcus aureus [41]): Active
- Activity (Enterococcus faecalis [42]): inactive
- Activity (Staphylococcus aureus [43]): inactive

SMILES: CCCCCCc1c(-c2ccc(OCCCCNCCCN)cc2OCCCCNCCCN)oc2cc(OC)cc(O)c2c1=O
- Activity (Cell membrane [1]): Active
- Activity (Staphylococcus aureus [2]): Dose-Dependent Effect
- MIC (Staphylococcus aureus [3]): 0.25 µg/mL (≈ 0.39 µM)
- Activity (Cell membrane [4]): Active
- Activity (Staphylococcus aureus [5]): Dose-Dependent Effect
- MIC (Staphylococcus aureus [6]): 0.25 µg/mL (≈ 0.39 µM)
- Activity (Enterococcus faecalis [7]): Dose-Dependent Effect
- Activity (Cell membrane [8]): Active
- Activity (Enterococcus faecalis [9]): inactive
- inhibition (INH) (Staphylococcus aureus [10]): >90%
- Activity (Staphylococcus aureus [11]): ~80%
- MIC (Enterococcus faecalis [12]): 1 µg/mL (≈ 1.56 µM)
- MIC (Staphylococcus aureus [13]): 0.25 µg/mL (≈ 0.39 µM)
- Activity (Enterococcus faecalis [14]): Active
- Activity (Cell membrane [15]): Active
- Activity (Cell membrane [16]): Active
- inhibition (INH) (Enterococcus faecalis [17]): >90%
- Activity (Cell membrane [18]): Dose-Dependent Effect
- Activity (Cell membrane [19]): Active
- Activity (Cell membrane [20]): Active
- Activity (Enterococcus faecalis [21]): Active
- Ratio (Staphylococcus aureus [22]): <4
- Activity (Cell membrane [23]): Dose-Dependent Effect
- MIC (Enterococcus faecalis [24]): 1 µg/mL (≈ 1.56 µM)
- Activity (Cell membrane [25]): Active
- Activity (Cell membrane [26]): Active
- Activity (Enterococcus faecalis [27]): Active
- Activity (Staphylococcus aureus [28]): Active
- Activity (Cell membrane [29]): Active
- Activity (Cell membrane [30]): Active
- Activity (Staphylococcus aureus [31]): inactive
- Activity (Enterococcus faecalis [32]): ~80%
- Activity (Cell membrane [33]): Active
- Activity (Staphylococcus aureus [34]): Dose-Dependent Effect
- Activity (Cell membrane [35]): Active
- Activity (Staphylococcus aureus [36]): inactive
- Activity (Cell membrane [37]): Active
- Activity (Enterococcus faecalis [38]): Dose-Dependent Effect
- MIC (Staphylococcus aureus [39]): 0.5 µg/mL (≈ 0.78 µM)
- Activity (Cell membrane [40]): Active
- Activity (Staphylococcus aureus [41]): Active
- Activity (Enterococcus faecalis [42]): inactive
- Activity (Staphylococcus aureus [43]): inactive

From ChEMBL document CHEMBL5512659, “Structure optimizing of flavonoids against both MRSA and VRE” (Eur J Med Chem, 2024)
